Reference: the supplement of paper PMC10307832

Columns and labels:
Experiment in all cases: relative viability (nuclei count vs DMSO), 5 days (fraction); higher = more cells survive
Alisertib = compound: COc1cc(Nc2ncc3c(n2)-c2ccc(Cl)cc2C(c2c(F)cccc2OC)=NC3)ccc1C(=O)O [Alisertib]
How it was run: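 In 1536-well plates, lung cancer cell lines rested overnight at 37 °C before five library-drug doses (not always all listed), √10 apart, were pinned onto vehicle-anchored plates. Nuclei were counted with MetaXpress from 4× Hoechst images taken after 5 days without medium change. Viability compares treated-well with vehicle-well nuclei as a median over plates, and plates needed control CV below 25% plus at least one doubling to pass.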

Alisertib + Tozasertib = compound: COc1cc(Nc2ncc3c(n2)-c2ccc(Cl)cc2C(c2c(F)cccc2OC)=NC3)ccc1C(=O)O [Alisertib] + Cc1cc(Nc2cc(N3CCN(C)CC3)nc(Sc3ccc(NC(=O)C4CC4)cc3)n2)n[nH]1 [Tozasertib] (partner 0.1 µM)
How it was run: (§1)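 For relative viability, nuclei counts in treated wells were divided by those in vehicle wells. Lung cancer cell lines had been pin-tool dosed in 1536-well plates the day after seeding and cultured for 5 days, then fixed and stained in one step (final 0.05% Triton X-100, 1% formaldehyde, 1 ug/ml Hoechst) and imaged at 4×. Doses were one drug alone or a fixed anchor-drug dose plus five library-drug doses (not always all listed) in √10 steps, and values are duplicate-plate medians.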

Alisertib + Navitoclax = compound: COc1cc(Nc2ncc3c(n2)-c2ccc(Cl)cc2C(c2c(F)cccc2OC)=NC3)ccc1C(=O)O [Alisertib] + CC1(C)CCC(c2ccc(Cl)cc2)=C(CN2CCN(c3ccc(C(=O)NS(=O)(=O)c4ccc(N[C@H](CCN5CCOCC5)CSc5ccccc5)c(S(=O)(=O)C(F)(F)F)c4)cc3)CC2)C1 [Navitoclax] (partner 0.5 µM)
How it was run: as §1

Alisertib + Phenformin = compound: COc1cc(Nc2ncc3c(n2)-c2ccc(Cl)cc2C(c2c(F)cccc2OC)=NC3)ccc1C(=O)O [Alisertib] + N=C(N)NC(=N)NCCc1ccccc1 [Phenformin] (partner 250 µM)
How it was run: as §1

Cell Line	relative viability (Alisertib; 0.005 µM)	relative viability (Alisertib; 0.01581 µM)	relative viability (Alisertib; 0.05 µM)	relative viability (Alisertib; 0.1581 µM)	relative viability (Alisertib; 0.5 µM)	relative viability (Alisertib + Tozasertib; first compound 0.005 µM)	relative viability (Alisertib + Tozasertib; first compound 0.01581 µM)	relative viability (Alisertib + Tozasertib; first compound 0.05 µM)	relative viability (Alisertib + Tozasertib; first compound 0.1581 µM)	relative viability (Alisertib + Tozasertib; first compound 0.5 µM)	relative viability (Alisertib + Navitoclax; first compound 0.005 µM)	relative viability (Alisertib + Navitoclax; first compound 0.01581 µM)	relative viability (Alisertib + Navitoclax; first compound 0.05 µM)	relative viability (Alisertib + Navitoclax; first compound 0.1581 µM)	relative viability (Alisertib + Navitoclax; first compound 0.5 µM)	relative viability (Alisertib + Phenformin; first compound 0.005 µM)	relative viability (Alisertib + Phenformin; first compound 0.01581 µM)	relative viability (Alisertib + Phenformin; first compound 0.05 µM)	relative viability (Alisertib + Phenformin; first compound 0.1581 µM)	relative viability (Alisertib + Phenformin; first compound 0.5 µM)
201T	0.985	0.964	0.966	0.466	0.386	0.899	0.681	0.579	0.407	0.354	1.25	1.19	1.21	1.07	0.425	0.38	0.435	0.441	0.238	0.256
A549	0.877	0.633	0.331	0.0691	0.0535	–	–	–	–	–	1.1	0.642	0.215	0.0692	0.0461	0.152	0.0871	0.0611	0.0311	0.0352
A-427	0.798	0.681	0.333	0.231	0.19	0.211	0.166	0.174	0.186	0.135	0.897	0.907	0.26	0.167	0.158	0.298	0.187	0.117	0.132	0.121
ABC-1	0.794	0.845	0.787	0.286	0.293	0.178	0.233	0.256	0.203	0.196	–	–	–	–	–	0.269	0.225	0.185	0.218	0.195
BEN	0.88	0.812	0.374	0.234	0.209	0.531	0.457	0.375	0.456	0.4	0.0634	0.063	0.0731	0.0469	0.0558	0.283	0.299	0.233	0.207	0.184
CAL-12T	0.827	0.636	0.229	0.193	0.179	0.333	0.28	0.202	0.199	0.178	1.15	0.568	0.208	0.141	0.165	0.434	0.253	0.15	0.142	0.169
Calu-6	0.863	0.669	0.319	0.196	0.186	–	–	–	–	–	0.713	0.377	0.13	0.0974	0.107	–	–	–	–	–
EBC-1	0.875	0.806	0.373	0.183	0.162	–	–	–	–	–	0.298	0.278	0.131	0.17	0.167	–	–	–	–	–
IA-LM	0.795	0.823	0.569	0.357	0.0972	–	–	–	–	–	0.654	0.59	0.313	0.164	0.0604	–	–	–	–	–
LCLC-103H	0.903	1.04	0.875	0.392	0.293	0.432	0.42	0.223	0.247	0.26	–	–	–	–	–	0.305	0.304	0.316	0.175	0.187
NCI-H358	0.791	0.797	0.2	0.147	0.14	0.093	0.121	0.0917	0.0959	0.079	–	–	–	–	–	0.259	0.262	0.118	0.0826	0.0797
NCI-H522	0.817	1.02	0.696	0.515	0.452	0.543	0.565	0.489	0.517	0.439	–	–	–	–	–	0.521	0.56	0.75	0.419	0.493
NCI-H650	0.724	0.856	0.394	0.258	0.209	0.653	0.481	0.253	0.185	0.165	–	–	–	–	–	0.404	0.377	0.258	0.202	0.168
NCI-H661	1.01	0.965	0.663	0.415	0.374	0.342	0.377	0.386	0.406	0.39	–	–	–	–	–	0.267	0.288	0.271	0.246	0.29
NCI-H1299	0.992	0.963	0.585	0.415	0.233	–	–	–	–	–	1.03	1.01	0.801	0.395	0.204	–	–	–	–	–
NCI-H1563	0.999	0.943	0.871	0.903	0.647	–	–	–	–	–	–	–	–	–	–	0.664	0.643	0.674	0.724	0.539
NCI-H1648	0.833	0.755	0.606	0.255	0.242	0.637	0.272	0.218	0.303	0.205	–	–	–	–	–	–	–	–	–	–
NCI-H1703	0.871	0.721	0.57	0.241	0.143	–	–	–	–	–	1.2	0.837	0.317	0.156	0.126	–	–	–	–	–
NCI-H1792	0.81	0.68	0.538	0.232	0.109	–	–	–	–	–	0.608	0.6	0.494	0.096	0.0626	0.299	0.253	0.107	0.13	0.0705
NCI-H2342	0.812	0.978	0.776	0.551	0.42	0.623	0.424	0.335	0.377	0.351	–	–	–	–	–	0.552	0.551	0.581	0.41	0.362
